biological target: T1, Carboxypeptidase A1 (Bos taurus, UniProt P00730); assay: Inhibitory activity against Carboxypeptidase A
T1 sequence (P00730 whole entry): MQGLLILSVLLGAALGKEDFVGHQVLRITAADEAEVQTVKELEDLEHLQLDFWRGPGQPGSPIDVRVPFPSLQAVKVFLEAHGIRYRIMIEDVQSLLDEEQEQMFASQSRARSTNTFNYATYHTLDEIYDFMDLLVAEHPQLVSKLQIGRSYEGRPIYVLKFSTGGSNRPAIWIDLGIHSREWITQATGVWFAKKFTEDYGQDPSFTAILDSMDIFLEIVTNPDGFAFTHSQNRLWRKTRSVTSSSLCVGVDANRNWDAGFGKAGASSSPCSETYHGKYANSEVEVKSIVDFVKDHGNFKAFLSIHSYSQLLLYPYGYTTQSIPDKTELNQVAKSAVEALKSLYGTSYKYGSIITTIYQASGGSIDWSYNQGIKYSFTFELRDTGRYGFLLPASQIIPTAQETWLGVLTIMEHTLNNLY

Point of comparison: `NS(=O)(=O)NC[C@@H](Cc1ccccc1)C(=O)O`, Ki 1400 µM. Against it:
- NS(=O)(=O)N[C@H](Cc1ccccc1)C(=O)O — 3-fold lower, 470 µM
- CN([C@@H](Cc1ccccc1)C(=O)O)S(N)(=O)=O — 2.5-fold higher, 3500 µM
- NS(=O)(=O)NCC(Cc1ccccc1)C(=O)O (stereo not drawn) — 2.1-fold higher, 2900 µM
- O=C(O)[C@H](Cc1ccccc1)NS(=O)(=O)NCc1ccccc1 — 40-fold lower, 35 µM
- O=C(O)[C@H](Cc1ccccc1)NS(=O)(=O)NCCc1ccccc1 — 7.8-fold lower, 180 µM
- CC(C)NS(=O)(=O)N[C@@H](Cc1ccccc1)C(=O)O — 2.3-fold lower, 610 µM
- CNS(=O)(=O)N[C@@H](Cc1ccccc1)C(=O)O — 7.8-fold lower, 180 µM

Source: ChEMBL document CHEMBL1135659, “Sulfamide-based inhibitors for carboxypeptidase A. Novel type transition state analogue inhibitors for zinc proteases” (J Med Chem, 2002)
